Data taken from PubChem BioAssay AID248 (DTP/NCI, 2004).
Several values for one entry are separate records, joined by “and”; a condition that tells them apart may be missing. Identical values can stand only once. Inconclusive results and toxic doses are left out. Cut-off read from the data, not from the text of the source: active = T/C of 150% or more; inactive = T/C below 125%.

Test system: L1210 leukemia ip in BDF1 mice, survival T/C
Assay: NCI In Vivo Anticancer Drug Screen. Data for tumor model L1210 Leukemia (intraperitoneal) in B6D2F1 (BDF1) mice
Settings: endpoint: mean survival time, higher = longer survival
Outline: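 Mice bearing the transplanted tumor received compound or vehicle. Survival of the treated group was divided by that of the vehicle-treated control group to give the ratio.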

[1] = dose: 100.0 mg/kg/injection, schedule: Q04DX003 (ip), vehicle: saline
[2] = dose: 200.0 mg/kg/injection, schedule: Q04DX003 (ip), vehicle: saline
[3] = dose: 400.0 mg/kg/injection, schedule: Q04DX003 (ip), vehicle: saline
[4] = dose: 100.0 mg/kg/injection, schedule: Q01DX009 (ip), vehicle: Klucel (hydroxypropylcellulose) (HPC)
[5] = dose: 100.0 mg/kg/injection, schedule: Q04DX003 (ip), vehicle: Klucel (hydroxypropylcellulose) (HPC)
[6] = dose: 200.0 mg/kg/injection, schedule: Q01DX009 (ip), vehicle: Klucel (hydroxypropylcellulose) (HPC)
[7] = dose: 200.0 mg/kg/injection, schedule: Q04DX003 (ip), vehicle: Klucel (hydroxypropylcellulose) (HPC)
[8] = dose: 400.0 mg/kg/injection, schedule: Q01DX009 (ip), vehicle: Klucel (hydroxypropylcellulose) (HPC)
[9] = dose: 400.0 mg/kg/injection, schedule: Q04DX003 (ip), vehicle: Klucel (hydroxypropylcellulose) (HPC)
[10] = dose: 100.0 mg/kg/injection, schedule: Q04DX002 (ip), vehicle: Klucel (hydroxypropylcellulose) (HPC)
[11] = dose: 200.0 mg/kg/injection, schedule: Q04DX002 (ip), vehicle: Klucel (hydroxypropylcellulose) (HPC)
[12] = dose: 400.0 mg/kg/injection, schedule: Q04DX002 (ip), vehicle: Klucel (hydroxypropylcellulose) (HPC)
[13] = dose: 100.0 mg/kg/injection, schedule: Q01DX001 (ip), vehicle: Klucel (hydroxypropylcellulose) (HPC)
[14] = dose: 200.0 mg/kg/injection, schedule: Q01DX001 (ip), vehicle: Klucel (hydroxypropylcellulose) (HPC)
[15] = dose: 100.0 mg/kg/injection, schedule: Q01DX009 (ip), vehicle: saline with Tween-80
[16] = dose: 200.0 mg/kg/injection, schedule: Q01DX009 (ip), vehicle: saline with Tween-80
[17] = dose: 400.0 mg/kg/injection, schedule: Q01DX009 (ip), vehicle: saline with Tween-80
[18] = dose: 100.0 mg/kg/injection, schedule: Q01DX009 (ip), vehicle: saline
[19] = dose: 200.0 mg/kg/injection, schedule: Q01DX009 (ip), vehicle: saline
[20] = dose: 100.0 mg/kg/injection, schedule: Q04DX003 (ip), vehicle: saline with Tween-80
[21] = dose: 200.0 mg/kg/injection, schedule: Q04DX003 (ip), vehicle: saline with Tween-80
[22] = dose: 400.0 mg/kg/injection, schedule: Q04DX003 (ip), vehicle: saline with Tween-80

Measured: T/C

O=[N+]([O-])c1cccc(S(=O)(=O)SC(Cl)(Cl)Cl)c1
inactive: dose: 25.0 mg/kg/injection, schedule: Q04DX003 (ip), vehicle: saline 96 % of control

O=C1/C(=C/c2ccccc2[N+](=O)[O-])CCc2ccccc21
inactive: dose: 100.0 mg/kg/injection, schedule: Q04DX003 (ip), vehicle: acetone 96 % of control | dose: 200.0 mg/kg/injection, schedule: Q04DX003 (ip), vehicle: acetone 106 % of control | dose: 400.0 mg/kg/injection, schedule: Q04DX003 (ip), vehicle: acetone 95 % of control

O=C1CSCCN1
inactive: [1] 101 % of control | [2] 101 % of control | [3] 98 % of control

COC(=O)c1c(I)cccc1[N+](=O)[O-]
inactive: [4] 92 % of control | [5] 97 % of control | [6] 91 % of control | [7] 103 % of control | [8] 96 % of control | [9] 97 % of control

CC(=O)Nc1ccc2c(c1)/C(=N/O)c1ccccc1-2
inactive: [1] 97 % of control | [2] 89 % of control | [3] 94 % of control

CN(CC(O)COc1ccccc1)CC1CCCO1 (stereo not drawn)
inactive: dose: 25.0 mg/kg/injection, schedule: Q04DX003 (ip), vehicle: Klucel (hydroxypropylcellulose) (HPC) 98 % of control | dose: 50.0 mg/kg/injection, schedule: Q04DX003 (ip), vehicle: Klucel (hydroxypropylcellulose) (HPC) 97 % of control | [5] 95 % of control and 98 % of control

CNC(=O)Nc1nc2ccccc2s1
inactive: dose: 50.0 mg/kg/injection, schedule: Q04DX002 (ip), vehicle: Klucel (hydroxypropylcellulose) (HPC) 91 % of control | [4] 103 % of control | [10] 97 % of control and 98 % of control | [6] 93 % of control | [11] 94 % of control | [8] 93 % of control | [12] 90 % of control

O=C(O)CCc1c(O)cc(Br)c(O)c1Br
inactive: [13] 90 % of control | [14] 93 % of control | dose: 400.0 mg/kg/injection, schedule: Q01DX001 (ip), vehicle: Klucel (hydroxypropylcellulose) (HPC) 96 % of control

COc1ccc(C(=O)CC(O)(C(F)(F)F)C(F)(F)F)cc1F
inactive: [5] 103 % of control | [7] 106 % of control | [9] 95 % of control

CC(C)(C)c1ccc(OCCO)cc1
inactive: dose: 25.0 mg/kg/injection, schedule: Q01DX009 (ip), vehicle: other 102 % of control | dose: 50.0 mg/kg/injection, schedule: Q01DX009 (ip), vehicle: other 96 % of control | dose: 100.0 mg/kg/injection, schedule: Q01DX009 (ip), vehicle: other 95 % of control

CCS(=O)(=O)/C=C/c1ccc(NC(C)=O)cc1
inactive: dose: 100.0 mg/kg/injection, schedule: Q04DX002 (ip), vehicle: saline with Tween-80 122 % of control | dose: 200.0 mg/kg/injection, schedule: Q04DX002 (ip), vehicle: saline with Tween-80 98 % of control | dose: 400.0 mg/kg/injection, schedule: Q04DX002 (ip), vehicle: saline with Tween-80 91 % of control

COC(=O)C1C2C=CC(C2)C1C(=O)O (stereo not drawn)
inactive: [4] 103 % of control | [15] 92 % of control | [5] 98 % of control | [6] 92 % of control | [16] 86 % of control | [7] 97 % of control | [8] 88 % of control | [17] 87 % of control | [9] 97 % of control

O=S1(=O)CC(O)C(Cl)C1 (stereo not drawn)
inactive: dose: 50.0 mg/kg/injection, schedule: Q01DX009 (ip), vehicle: saline 101 % of control | [18] 94 % of control | [1] 98 % of control | [19] 94 % of control | [2] 94 % of control

O=C(O)c1ccc(NC(C(=O)c2ccccc2)c2ccccc2)cc1 (stereo not drawn)
inactive: dose: 50.0 mg/kg/injection, schedule: Q01DX001 (ip), vehicle: Klucel (hydroxypropylcellulose) (HPC) 96 % of control | [13] 107 % of control | [14] 94 % of control

COc1ccc2c(c1)C/C(=N\O)C2=O
inactive: [20] 102 % of control

NNC(=O)c1nc(N)n[nH]1
inactive: [15] 98 % of control | [16] 95 % of control | [17] 109 % of control

CCCNC(=O)Nc1cc(C(F)(F)F)ccc1Cl
inactive: [15] 98 % of control | [20] 97 % of control | [16] 88 % of control | [21] 103 % of control | [17] 87 % of control | [22] 108 % of control

O=C(Cc1ccccc1)NC1=C(NCc2ccccc2)C(=O)c2ccccc2C1=O
inactive: [20] 105 % of control | [21] 98 % of control | [22] 96 % of control

CC12CCC(C(=O)CC1=O)C2(C)C (stereo not drawn)
inactive: [18] 100 % of control | [19] 104 % of control | dose: 400.0 mg/kg/injection, schedule: Q01DX009 (ip), vehicle: saline 96 % of control

CCCCCN(CCCCC)C(=O)CCCC
inactive: dose: 100.0 mg/kg/injection, schedule: Q01DX001 (ip), vehicle: carboxymethylcellulose (CMC) 115 % of control | dose: 100.0 mg/kg/injection, schedule: Q01DX009 (ip), vehicle: carboxymethylcellulose (CMC) 93 % of control and 97 % of control | dose: 100.0 mg/kg/injection, schedule: Q04DX002 (ip), vehicle: carboxymethylcellulose (CMC) 101 % of control and 105 % of control | dose: 100.0 mg/kg/injection, schedule: Q04DX003 (ip), vehicle: carboxymethylcellulose (CMC) 97 % of control | dose: 200.0 mg/kg/injection, schedule: Q01DX001 (ip), vehicle: carboxymethylcellulose (CMC) 101 % of control | dose: 200.0 mg/kg/injection, schedule: Q01DX009 (ip), vehicle: carboxymethylcellulose (CMC) 100 % of control and 102 % of control | dose: 200.0 mg/kg/injection, schedule: Q04DX002 (ip), vehicle: carboxymethylcellulose (CMC) 98 % of control and 103 % of control | dose: 200.0 mg/kg/injection, schedule: Q04DX003 (ip), vehicle: carboxymethylcellulose (CMC) 95 % of control | dose: 400.0 mg/kg/injection, schedule: Q01DX001 (ip), vehicle: carboxymethylcellulose (CMC) 100 % of control | dose: 400.0 mg/kg/injection, schedule: Q01DX009 (ip), vehicle: carboxymethylcellulose (CMC) 97 % of control and 86 % of control | dose: 400.0 mg/kg/injection, schedule: Q04DX002 (ip), vehicle: carboxymethylcellulose (CMC) 98 % of control and 87 % of control | dose: 400.0 mg/kg/injection, schedule: Q04DX003 (ip), vehicle: carboxymethylcellulose (CMC) 100 % of control

CC(=O)Nc1cc(Cl)ccc1C(=O)O
inactive: dose: 100.0 mg/kg/injection, schedule: Q01DX001 (ip), vehicle: other 109 % of control | dose: 100.0 mg/kg/injection, schedule: Q04DX003 (ip), vehicle: other 96 % of control | dose: 200.0 mg/kg/injection, schedule: Q01DX001 (ip), vehicle: other 98 % of control | dose: 200.0 mg/kg/injection, schedule: Q04DX003 (ip), vehicle: other 90 % of control | dose: 400.0 mg/kg/injection, schedule: Q01DX001 (ip), vehicle: other 101 % of control | dose: 400.0 mg/kg/injection, schedule: Q04DX003 (ip), vehicle: other 96 % of control

COC1=C(c2ccccc2)P(=O)(Cc2ccccc2)C(C)C1 (stereo not drawn)
inactive: [10] 108 % of control | [11] 96 % of control | [12] 93 % of control

O=C(NCCc1ccccc1)Nc1ccccc1Cl
inactive: dose: 100.0 mg/kg/injection, schedule: Q01DX009 (ip), vehicle: gum acacia 96 % of control | dose: 100.0 mg/kg/injection, schedule: Q04DX003 (ip), vehicle: gum acacia 92 % of control | dose: 200.0 mg/kg/injection, schedule: Q01DX009 (ip), vehicle: gum acacia 115 % of control | dose: 200.0 mg/kg/injection, schedule: Q04DX003 (ip), vehicle: gum acacia 92 % of control | dose: 400.0 mg/kg/injection, schedule: Q01DX009 (ip), vehicle: gum acacia 100 % of control | dose: 400.0 mg/kg/injection, schedule: Q04DX003 (ip), vehicle: gum acacia 97 % of control
